Test results published in US9132140B2, “Boronic acid derivatives and therapeutic uses thereof” (Rempex Pharmaceuticals, Inc., priority 2013, dated 2015).
pKi: −log10 of the molar value. Where two headings read alike, the source gives them in different places.

Experiments:
[1] = target: P99/AmpC of ECL (Enterobacter cloacae, UniProt P05364); test: biochemical; conditions: nitrocefin; read-out: Ki (P99/AmpC of ECL, NCF)
Description: (§1) Purified enzymes were mixed with various concentrations of inhibitors in reaction buffer and incubated for 10 min at room temperature. Nitrocefin was added and substrate cleavage profiles were recorded at 490 nm every 10 sec for 10 min.

[2] = target: SHV-12 (Klebsiella pneumoniae, UniProt P0AD64, E235K/G234S/L31Q); test: Inhibition of purified beta-lactamase, nitrocefin cleavage; format: biochemical; conditions: read-out: Ki (SHV-12, NCF)
Chain of SHV-12 (P0AD64 22-286 L31Q/G234S/E235K): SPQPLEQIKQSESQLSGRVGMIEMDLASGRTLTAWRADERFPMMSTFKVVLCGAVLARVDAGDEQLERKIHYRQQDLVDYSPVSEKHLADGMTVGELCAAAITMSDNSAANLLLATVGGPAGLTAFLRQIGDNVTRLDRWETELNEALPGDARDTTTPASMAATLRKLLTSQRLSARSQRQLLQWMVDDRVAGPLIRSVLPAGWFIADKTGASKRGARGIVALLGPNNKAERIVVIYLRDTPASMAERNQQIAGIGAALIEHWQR
Description: as §1

[3] = target: OXA-48 (Klebsiella pneumoniae, UniProt Q6XEC0); test: as above; format: biochemical; conditions: read-out: Ki (OXA-48, NCF)
Chain of OXA-48 (Q6XEC0 23-265, looked up): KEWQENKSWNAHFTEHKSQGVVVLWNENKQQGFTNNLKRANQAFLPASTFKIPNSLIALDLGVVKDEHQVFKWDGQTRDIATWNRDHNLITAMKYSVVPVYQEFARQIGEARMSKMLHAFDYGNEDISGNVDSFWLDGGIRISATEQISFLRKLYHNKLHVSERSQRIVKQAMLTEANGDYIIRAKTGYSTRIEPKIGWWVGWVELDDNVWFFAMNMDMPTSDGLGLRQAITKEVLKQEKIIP
Description: as §1

[4] = target: CMY-2 (Klebsiella pneumoniae, UniProt Q48434); test: as above; format: biochemical
Chain of CMY-2 (Q48434 21-381, species assumed): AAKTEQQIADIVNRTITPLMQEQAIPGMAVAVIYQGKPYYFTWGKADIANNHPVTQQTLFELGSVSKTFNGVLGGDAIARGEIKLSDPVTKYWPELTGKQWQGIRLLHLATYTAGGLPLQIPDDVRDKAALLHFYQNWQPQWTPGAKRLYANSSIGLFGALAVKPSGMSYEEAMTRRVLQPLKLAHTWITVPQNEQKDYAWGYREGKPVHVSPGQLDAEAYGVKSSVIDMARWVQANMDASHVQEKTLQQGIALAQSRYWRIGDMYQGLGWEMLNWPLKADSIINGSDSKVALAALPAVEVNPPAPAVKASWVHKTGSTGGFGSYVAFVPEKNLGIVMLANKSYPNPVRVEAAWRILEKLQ
Description: as §1

[5] = target: CTX-M-14 (Escherichia coli, UniProt Q9L5C7); test: as above; format: biochemical
Chain of CTX-M-14 (Q9L5C7 entry or part of it): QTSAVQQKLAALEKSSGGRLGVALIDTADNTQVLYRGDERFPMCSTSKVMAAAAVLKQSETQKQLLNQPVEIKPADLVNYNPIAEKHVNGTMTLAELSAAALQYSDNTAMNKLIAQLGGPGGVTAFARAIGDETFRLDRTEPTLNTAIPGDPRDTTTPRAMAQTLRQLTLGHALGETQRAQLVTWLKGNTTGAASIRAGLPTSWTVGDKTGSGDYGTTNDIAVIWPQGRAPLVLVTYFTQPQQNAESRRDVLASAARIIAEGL
Description: as §1

[6] = target: T1, KPC-2 (Klebsiella pneumoniae, UniProt Q9F663); test: as above; format: biochemical; conditions: read-out: Ki (KPC-2, NCF)
T1 sequence (Q9F663 25-293, looked up, species assumed): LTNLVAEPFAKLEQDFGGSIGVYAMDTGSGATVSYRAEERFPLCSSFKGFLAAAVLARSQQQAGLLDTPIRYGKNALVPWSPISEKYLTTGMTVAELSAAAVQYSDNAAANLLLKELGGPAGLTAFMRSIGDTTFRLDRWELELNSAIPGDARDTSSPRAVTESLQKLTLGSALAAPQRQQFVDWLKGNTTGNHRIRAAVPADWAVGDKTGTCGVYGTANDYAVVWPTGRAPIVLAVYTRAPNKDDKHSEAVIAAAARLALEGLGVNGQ
Description: as §1

[7] = test system: KP1081 (NDM-1, TEM-1, SHV-11, CMY-6, CTX-M-15); format: cell-based, Klebsiella pneumoniae; conditions: KP1081; alone
Excerpt: (§2) The results are present in Table 6.
(§3) The results are present in Table 7.

[8] = test system: KP1087 (KPC-2, CTX-M-15, SHV-11, TEM-1); format: cell-based, Klebsiella pneumoniae; conditions: KP1087; alone
Excerpt: as §2, §3

[9] = target: NDM-1 (Klebsiella pneumoniae, UniProt C7C422); test: biochemical; conditions: substrate imipenem 100 μM
Chain of NDM-1 (C7C422 29-270, looked up, species assumed): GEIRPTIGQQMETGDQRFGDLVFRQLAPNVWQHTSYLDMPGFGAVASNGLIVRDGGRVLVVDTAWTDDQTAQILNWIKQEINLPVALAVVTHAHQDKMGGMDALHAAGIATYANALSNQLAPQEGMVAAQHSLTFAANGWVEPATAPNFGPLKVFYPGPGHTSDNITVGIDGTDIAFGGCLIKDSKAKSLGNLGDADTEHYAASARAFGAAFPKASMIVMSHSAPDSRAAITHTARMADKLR

[10] = target: T1, KPC-2; test: Inhibition of purified class A carbapenemase, biapenem cleavage; format: biochemical; conditions: substrate biapenem 100 μM
[11] = nitrocefin, read-out: Ki (CMY-2, NCF)

Chain of P99/AmpC of ECL (P05364 21-381): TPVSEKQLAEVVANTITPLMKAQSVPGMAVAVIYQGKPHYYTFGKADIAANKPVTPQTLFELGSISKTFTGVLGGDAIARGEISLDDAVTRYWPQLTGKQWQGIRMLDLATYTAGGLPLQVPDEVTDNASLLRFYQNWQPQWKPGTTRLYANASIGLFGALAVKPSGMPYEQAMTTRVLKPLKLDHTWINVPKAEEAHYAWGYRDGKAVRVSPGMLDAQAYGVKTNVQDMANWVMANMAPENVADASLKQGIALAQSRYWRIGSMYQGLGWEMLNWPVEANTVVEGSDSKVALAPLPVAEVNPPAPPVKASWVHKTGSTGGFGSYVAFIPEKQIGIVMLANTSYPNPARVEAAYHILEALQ

SMILES | pKi [1] | pKi [2] | pKi [3] | pKi [4, 11] | pKi [5] | pKi [6] | Carbapenem MIC alone [7] | Carbapenem MIC alone [8] | pKi [9] | pKi [10] | pKi ([5]; nitrocefin, read-out: Ki (CTX-M-14, NCF)) | pKi [4]
CC(=O)Nc1nnc(S[C@H]2Cc3cccc(C(=O)O)c3OB2O)s1 [Compound 7, (R)-3-(5-acetamido-1,3,4-thiadiazol-2-ylthio)-2-hydroxy-3,4-dihydro-2H-benzo[e][1,2]oxaborinine-8-carboxylic acid] | > 7.00 | > 7.00 | > 7.00 | > 7.00 | > 7.00 |  |  |  |  |  |  | 
Nn1cnnc1S[C@H]1Cc2ccc(F)c(C(=O)O)c2OB1O [Compound 20, (R)-3-(4-amino-4H-1,2,4-triazol-3-ylthio)-7-fluoro-2-hydroxy-3,4-dihydro-2H-benzo[e][1,2]oxaborinine-8-carboxylic acid] | 6.00 to 7.00 | > 7.00 | 6.00 to 7.00 |  | > 7.00 | 6.00 to 7.00 |  |  |  |  |  | 
CSc1ccc2c(c1C(=O)O)OB(O)[C@@H](Sc1nncn1N)C2 [Compound 25, (R)-3-(4-amino-4H-1,2,4-triazol-3-ylthio)-2-hydroxy-7-(methylthio)-3,4-dihydro-2H-benzo[e][1,2]oxaborinine-8-carboxylic acid] | 6.00 to 7.00 | > 7.00 | > 7.00 |  | > 7.00 | 6.00 to 7.00 |  |  |  |  |  | 
C[C@@H](O)[C@H]1C(=O)N2C(C(=O)O)=C(S[C@@H]3CN[C@H](CNS(N)(=O)=O)C3)[C@H](C)[C@H]12 [Doripenem] |  |  |  |  |  |  | Z (MIC of greater than 10 μg/mL) | Z (MIC of greater than 10 μg/mL) |  |  |  | 
C[C@@H](O)[C@H]1C(=O)N2C(C(=O)[O-])=C(SC3Cn4cnc[n+]4C3)[C@H](C)[C@H]12 (some centres unmarked) [Biapenem] |  |  |  |  |  |  | Z (MIC of greater than 10 μg/mL) | Z (MIC of greater than 10 μg/mL) |  |  |  | 
CS[C@H]1Cc2cccc(C(=O)O)c2OB1O [Compound 16, (R)-2-hydroxy-3-(methylthio)-3,4-dihydro-2H-benzo[e][1,2]oxaborinine-8-carboxylic acid] | > 7.00 | 6.00 to 7.00 | > 7.00 |  | > 7.00 | > 7.00 |  |  | < 7.00 | 7.00 to 8.00 |  | 
NC(=O)CS[C@H]1Cc2cccc(C(=O)O)c2OB1O [Compound 3, (R)-3-(2-amino-2-oxoethylthio)-2-hydroxy-3,4-dihydro-2H-benzo[e][1,2]oxaborinine-8-carboxylic acid] | > 7.00 | 6.00 to 7.00 | > 7.00 | > 7.00 | > 7.00 | > 7.00 |  |  |  | 7.00 to 8.00 |  | 
CC(=N)S[C@H]1Cc2cccc(C(=O)O)c2OB1O [Compound 10, (R)-2-hydroxy-3-(1-iminoethylthio)-3,4-dihydro-2H-benzo[e][1,2]oxaborinine-8-carboxylic acid] |  |  |  |  |  | 6.00 to 7.00 |  |  |  |  |  | 
O=C(O)c1cccc2c1OB(O)[C@@H](Sc1nnc[nH]1)C2 [Compound 2, (R)-3-(4H-1,2,4-triazol-3-ylthio)-2-hydroxy-3,4-dihydro-2H-benzo[e][1,2]oxaborinine-8-carboxylic acid] | 6.00 to 7.00 | > 7.00 | > 7.00 | 6.00 to 7.00 | 6.00 to 7.00 | 6.00 to 7.00 |  |  |  | 7.00 to 8.00 |  | 
Cn1cnnc1S[C@H]1Cc2ccc(F)c(C(=O)O)c2OB1O [Compound 24, (R)-7-fluoro-2-hydroxy-3-(4-methyl-4H-1,2,4-triazol-3-ylthio)-3,4-dihydro-2H-benzo[e][1,2]oxaborinine-8-carboxylic acid] | 6.00 to 7.00 | > 7.00 | > 7.00 |  | > 7.00 | 6.00 to 7.00 |  |  |  |  |  | 
O=C(O)[C@H]1/C(=C/CO)O[C@@H]2CC(=O)N21 [Clavulanic acid, reference compound] |  |  | < 6.00 | < 6.00 |  | < 6.00 |  |  |  |  | > 7.00 | 
NC(=O)CCS[C@H]1Cc2cccc(C(=O)O)c2OB1O [Compound 9, (R)-3-(3-amino-3-oxopropylthio)-2-hydroxy-3,4-dihydro-2H-benzo[e][1,2]oxaborinine-8-carboxylic acid] | > 7.00 | 6.00 to 7.00 | > 7.00 | > 7.00 | > 7.00 | > 7.00 |  |  |  |  |  | 
O=C(O)c1cccc2c1OB(O)[C@@H](OC1CNC1)C2 [Compound 18, (R)-3-(azetidin-3-yloxy)-2-hydroxy-3,4-dihydro-2H-benzo[e][1,2]oxaborinine-8-carboxylic acid] | 6.00 to 7.00 | > 7.00 | > 7.00 |  | 6.00 to 7.00 | 6.00 to 7.00 |  |  |  |  |  | 
Nc1nnc(S[C@H]2Cc3cccc(C(=O)O)c3OB2O)s1 [Compound 4, (R)-3-(5-amino-1,3,4-thiadiazol-2-ylthio)-2-hydroxy-3,4-dihydro-2H-benzo[e][1,2]oxaborinine-8-carboxylic acid] | > 7.00 | > 7.00 | > 7.00 | > 7.00 | > 7.00 |  |  |  |  |  |  | 
NC(=O)CC1Cc2cccc(C(=O)O)c2OB1O (centres unmarked) [Compound 22, 3-(2-amino-2-oxoethyl)-2-hydroxy-3,4-dihydro-2H-benzo[e][1,2]oxaborinine-8-carboxylic acid] | > 7.00 | > 7.00 | > 7.00 | > 7.00 | > 7.00 | > 7.00 |  |  |  |  |  | 
C[C@]1(Cn2ccnn2)[C@H](C(=O)O)N2C(=O)C[C@H]2S1(=O)=O [Tazobactam, reference compound] |  |  | 6.00 to 7.00 |  |  | < 6.00 |  |  |  |  |  | 6.00 to 7.00
CO[C@H]1Cc2cccc(C(=O)O)c2OB1O [Compound 17, (R)-2-hydroxy-3-methoxy-3,4-dihydro-2H-benzo[e][1,2]oxaborinine-8-carboxylic acid] | > 7.00 | > 7.00 | > 7.00 |  | > 7.00 | > 7.00 |  |  |  |  |  | 
O=C(O)c1cccc2c1OB(O)[C@@H](Sc1c[nH]nn1)C2 [Compound 12, (R)-3-(1H-1,2,3-triazol-4-ylthio)-2-hydroxy-3,4-dihydro-2H-benzo[e][1,2]oxaborinine-8-carboxylic acid] |  |  |  |  |  | 6.00 to 7.00 |  |  |  |  |  | 
CO[C@H]1Cc2ccc(F)c(C(=O)O)c2OB1O [Compound 19, (R)-7-fluoro-2-hydroxy-3-methoxy-3,4-dihydro-2H-benzo[e][1,2]oxaborinine-8-carboxylic acid] | > 7.00 | > 7.00 | > 7.00 |  | > 7.00 | > 7.00 |  |  | < 7.00 |  |  | 
Cn1cnnc1S[C@H]1Cc2cccc(C(=O)O)c2OB1O [Compound 15, (R)-2-hydroxy-3-(4-methyl-4H-1,2,4-triazol-3-ylthio)-3,4-dihydro-2H-benzo[e][1,2]oxaborinine-8-carboxylic acid] | > 7.00 | > 7.00 | > 7.00 | > 7.00 | > 7.00 | 6.00 to 7.00 |  |  | > 8.00 | 7.00 to 8.00 |  | 
O=C(O)c1cccc2c1OB(O)[C@@H](Sc1nccs1)C2 [Compound 11, (R)-2-hydroxy-3-(thiazol-2-ylthio)-3,4-dihydro-2H-benzo[e][1,2]oxaborinine-8-carboxylic acid] | > 7.00 | > 7.00 | > 7.00 | > 7.00 |  |  |  |  |  |  |  | 
Nc1nnc(S[C@H]2Cc3ccc(F)c(C(=O)O)c3OB2O)s1 [Compound 23, (R)-3-(5-amino-1,3,4-thiadiazol-2-ylthio)-7-fluoro-2-hydroxy-3,4-dihydro-2H-benzo[e][1,2]oxaborinine-8-carboxylic acid] | > 7.00 | > 7.00 | > 7.00 |  | > 7.00 | > 7.00 |  |  |  |  |  | 
